Reference: US20100184786A1, “Polar Quinazolines” (Wyeth LLC, priority 2008, published 2010)

How the values were obtained:
[1] = biological target: T1, human LXRβ (Homo sapiens, UniProt P55055); experiment: Ligand-binding test procedure for human LXRβ (3H T0901317 tracer, flash plates); details: competition with 3H T0901317; read-out: hLXRb binding IC50
T1 construct: biotin (biotinylated); made in house; host or cells: E. coli
T1 sequence (P55055 1-460): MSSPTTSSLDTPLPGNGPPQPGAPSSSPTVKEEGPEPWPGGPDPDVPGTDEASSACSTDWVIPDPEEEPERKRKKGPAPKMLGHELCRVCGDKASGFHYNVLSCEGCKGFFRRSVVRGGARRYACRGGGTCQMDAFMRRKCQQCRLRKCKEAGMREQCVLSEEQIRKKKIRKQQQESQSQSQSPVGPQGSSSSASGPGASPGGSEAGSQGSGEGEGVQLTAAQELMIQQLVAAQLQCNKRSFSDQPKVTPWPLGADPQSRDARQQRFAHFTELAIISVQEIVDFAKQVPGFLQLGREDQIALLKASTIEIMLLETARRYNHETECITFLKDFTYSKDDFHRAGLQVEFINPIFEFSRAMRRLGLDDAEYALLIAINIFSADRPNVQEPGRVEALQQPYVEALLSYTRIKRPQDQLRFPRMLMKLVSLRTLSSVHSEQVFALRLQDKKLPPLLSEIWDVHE
Method: I. Ligand-Binding Test Procedure for Human LXRβ.
• Buffer: 100 mM KCl, 100 mM TRIS (pH 7.4 at +4° C.), 8.6% glycerol, 0.1 mM PMSF*, 2 mM MTG*, 0.2% CHAPS (* not used in wash buffer) • Tracer: ^3H T0901317 • Receptor source: E. coli extracted from cells expressing biotinylated hLXRβ. Extract was made in a similar buffer as above, but with 50 mM TRIS.
• Washed streptavidin and coated flash plates with wash buffer. • Diluted receptor extract to give Bmax˜4000 cpm and add to the wells. • Wrapped the plates in aluminum foil and stored them at +4° C. overnight.
(§1) • Made a dilution series in DMSO of the test ligands. • Made a 5 nM solution of the radioactive tracer in buffer. • Mixed 2500 diluted tracer with 50 of the test ligand from each concentration of the dilution series. • Washed the receptor-coated flash plates. • Added 2000 per well of the ligand/radiolabel mixture to the receptor-coated flash plates. • Wrapped the plates in aluminum foil and incubate at +4° C. over night.
• Aspirated wells, and washed the flashed plates. Sealed the plate. • Measured the remaining radioactivity in the plate.

[2] = biological target: T2, human LXRα (Homo sapiens, UniProt Q13133); experiment: Ligand-binding test procedure for human LXRα (3H T0901317 tracer, flash plates); details: competition with 3H T0901317; read-out: hLXRa binding IC50
T2 construct: biotin (biotinylated); made in house; host or cells: E. coli
T2 sequence (Q13133 1-447): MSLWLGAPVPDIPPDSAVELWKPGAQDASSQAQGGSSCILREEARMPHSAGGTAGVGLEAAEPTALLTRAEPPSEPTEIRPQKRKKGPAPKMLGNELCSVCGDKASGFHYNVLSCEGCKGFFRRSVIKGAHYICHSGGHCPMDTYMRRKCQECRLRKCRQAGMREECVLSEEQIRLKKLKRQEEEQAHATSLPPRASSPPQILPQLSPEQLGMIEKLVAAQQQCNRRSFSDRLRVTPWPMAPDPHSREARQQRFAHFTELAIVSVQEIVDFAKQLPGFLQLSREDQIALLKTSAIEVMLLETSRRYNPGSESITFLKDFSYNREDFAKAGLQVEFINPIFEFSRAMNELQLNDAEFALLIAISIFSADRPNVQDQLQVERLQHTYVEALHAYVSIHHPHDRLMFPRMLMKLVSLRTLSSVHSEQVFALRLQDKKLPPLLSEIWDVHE
Method: II. Ligand-Binding Test Procedure for Human LXRa.
• Buffer: 100 mM KCl, 100 mM TRIS (pH 7.4 at +4° C.), 8.6% glycerol, 0.1 mM PMSF*, 2 mM MTG*, 0.2% CHAPS (* not used in wash buffer) • Tracer: ^3H T0901317 • Receptor source: E. coli extract from cells expressing biotinylated hLXRα. Extract was made in a similar buffer as above, but with 50 mM TRIS.
• Washed streptavidin and coated flash plates with wash buffer. • Diluted receptor extract to give Bmax˜4000 cpm and add to the wells. • Wrapped the plates in aluminum foil and stored them at +4° C. over night.
as §1
• Aspirated wells, and wash the flashed plates. Sealed the plate. • Measured the remaining radioactivity in the plate.

| Compound | IC50 [1] | IC50 [2] |
| --- | --- | --- |
| CS(=O)(=O)c1cc(Oc2ccc(F)c(-c3ncnc4c(Cl)cccc34)c2)ccc1C#N [Example 41, 4-[3-(8-chloroquinazolin-4-yl)-4-fluorophenoxy]-2-(methylsulfonyl)benzonitrile] | 1060 nM | – |
| CS(=O)(=O)NCCCS(=O)(=O)c1cccc(Oc2ccc(F)c(-c3ncnc4c(Cl)cccc34)c2)c1 [Example 50, N-[3-({3-[3-(8-chloroquinazolin-4-yl)-4-fluorophenoxy]phenyl}sulfonyl)propyl]methane-sulfonamide] | 471 nM | 6350 nM |
| NC(=O)CCCS(=O)(=O)c1cccc(Oc2ccc(F)c(-c3ncnc4c(C(F)(F)F)cccc34)c2)c1 [Example 26, 4-[(3-{4-fluoro-3-[8-(trifluoromethyl)quinazolin-4-yl]phenoxy}phenyl)sulfonyl]butanamide] | 184 nM | 2480 nM |
| NCCCS(=O)(=O)c1cccc(Oc2ccc(F)c(-c3ncnc4c(Cl)cccc34)c2)c1 [Example 46, 3-({3-[3-(8-chloroquinazolin-4-yl)-4-fluorophenoxy]phenyl}sulfonyl)propan-1-amine] | 296 nM | 8180 nM |
| N#CCCCS(=O)(=O)c1cccc(Oc2ccc(F)c(-c3ncnc4c(Cl)cccc34)c2)c1 [Example 47, 4-({3-[3-(8-chloroquinazolin-4-yl)-4-fluorophenoxy]phenyl}sulfonyl)butanenitrile] | 274 nM | 3980 nM |
| CS(=O)(=O)NCCCCS(=O)(=O)c1cccc(Oc2ccc(F)c(-c3ncnc4c(Cl)cccc34)c2)c1 [Example 51, N-[4-({3-[3-(8-chloroquinazolin-4-yl)-4-fluorophenoxy]phenyl}sulfonyl)butyl]methane-sulfonamide] | 444 nM | 4890 nM |
| CS(=O)(=O)c1cc(Oc2ccc(F)c(-c3ncnc4c(C(F)(F)F)cccc34)c2)ccc1C#N [Example 38, 4-{4-fluoro-3-[8-(trifluoromethyl)quinazolin-4-yl]phenoxy}-2-(methylsulfonyl)benzonitrile] | 506 nM | 4100 nM |
| O=C(O)CCCS(=O)(=O)c1cccc(Oc2ccc(F)c(-c3ncnc4c(Cl)cccc34)c2)c1 [Example 57, 4-({3-[3-(8-chloroquinazolin-4-yl)-4-fluorophenoxy]phenyl}sulfonyl)butanoic acid] | 4210 nM | – |
| Cc1nc(-c2cc(Oc3cccc(S(=O)(=O)CCCC#N)c3)ccc2Cl)c2cccc(C(F)(F)F)c2n1 [Example 59, 4-[(3-{4-chloro-3-[2-methyl-8-(trifluoromethyl)quinazolin-4-yl]phenoxy}phenyl)sulfonyl]-butanenitrile] | 150 nM | 2260 nM |
| CN(CCCCS(=O)(=O)c1cccc(Oc2ccc(F)c(-c3ncnc4c(Cl)cccc34)c2)c1)S(C)(=O)=O [Example 48, N-[4-({3-[3-(8-chloroquinazolin-4-yl)-4-fluorophenoxy]phenyl}sulfonyl)butyl]-N-methylmethanesulfonamide] | 1020 nM | – |
| Cc1nc(-c2cc(Oc3cccc(S(=O)(=O)CCCNS(C)(=O)=O)c3)ccc2Cl)c2cccc(C(F)(F)F)c2n1 [Example 62, N-{3-[(3-{4-chloro-3-[2-methyl-8-(trifluoromethyl)quinazolin-4-yl]phenoxy}phenyl)sulfonyl]-propyl}methanesulfonamide] | 343 nM | 7040 nM |
| NS(=O)(=O)c1cccc(Oc2ccc(F)c(-c3ncnc4c(Cl)cccc34)c2)c1 [Example 20, 3-[3-(8-chloroquinazolin-4-yl)-4-fluorophenoxy]benzenesulfonamide] | 336 nM | 2880 nM |
| CS(=O)(=O)c1cc(Oc2ccc(Cl)c(-c3ncnc4c(C(F)(F)F)cccc34)c2)ccc1C(N)=O [Example 7, 4-{4-chloro-3-[8-(trifluoromethyl)quinazolin-4-yl]phenoxy}-2-(methylsulfonyl)benzamide] | 288 nM | 986 nM |
| CN(CCCS(=O)(=O)c1cccc(Oc2ccc(F)c(-c3ncnc4c(Cl)cccc34)c2)c1)S(C)(=O)=O [Example 49, N-[3-({3-[3-(8-chloroquinazolin-4-yl)-4-fluorophenoxy]phenyl}sulfonyl)propyl]-N-methylmethanesulfonamide] | 1990 nM | – |
| O=C(O)CCCCS(=O)(=O)c1cccc(Oc2ccc(F)c(-c3ncnc4c(C(F)(F)F)cccc34)c2)c1 [Example 34, 5-[(3-{4-fluoro-3-[8-(trifluoromethyl)quinazolin-4-yl]phenoxy}phenyl)sulfonyl]pentanoic acid] | 1430 nM | 11900 nM |
| NC(=O)CCCS(=O)(=O)c1cccc(Oc2ccc(F)c(-c3ncnc4c(Cl)cccc34)c2)c1 [Example 54, 4-({3-[3-(8-chloroquinazolin-4-yl)-4-fluorophenoxy]phenyl}sulfonyl)butanamide] | 584 nM | 6540 nM |
| CS(=O)(=O)c1cc(Oc2ccc(Cl)c(-c3ncnc4c(C(F)(F)F)cccc34)c2)ccc1C#N [Example 2, 4-{4-chloro-3-[8-(trifluoromethyl)quinazolin-4-yl]phenoxy}-2-(methylsulfonyl)benzonitrile] | 152 nM | 1060 nM |
| CS(=O)(=O)c1cc(Oc2ccc(F)c(-c3ncnc4c(C(F)(F)F)cccc34)c2)ccc1C(N)=O [Example 39, 4-{4-fluoro-3-[8-(trifluoromethyl)quinazolin-4-yl]phenoxy}-2-(methylsulfonyl)benzamide] | 1210 nM | 4370 nM |
| CS(=O)(=O)NCCCCS(=O)(=O)c1cccc(Oc2ccc(F)c(-c3ncnc4c(C(F)(F)F)cccc34)c2)c1 [Example 36, N-{4-[(3-{4-fluoro-3-[8-(trifluoromethyl)quinazolin-4-yl]phenoxy}phenyl)sulfonyl]butyl]methanesulfonamide] | 221 nM | 2730 nM |
| O=C(O)CCCCS(=O)(=O)c1cccc(Oc2ccc(F)c(-c3ncnc4c(Cl)cccc34)c2)c1 [Example 56, 5-({3-[3-(8-chloroquinazolin-4-yl)-4-fluorophenoxy]phenyl}sulfonyl)pentanoic acid] | 3430 nM | – |
| N#CCS(=O)(=O)c1cccc(Oc2ccc(F)c(-c3ncnc4c(Cl)cccc34)c2)c1 [Example 10, ({3-[3-(8-chloroquinazolin-4-yl)-4-fluorophenoxy]phenyl}sulfonyl)acetonitrile] | 286 nM | 1530 nM |
| CS(=O)(=O)NCCCS(=O)(=O)c1cccc(Oc2ccc(F)c(-c3ncnc4c(C(F)(F)F)cccc34)c2)c1 [Example 29, N-{3-[(3-{4-fluoro-3-[8-(trifluoromethyl)quinazolin-4-yl]phenoxy}phenyl)sulfonyl]propyl}-methanesulfonamide] | 157 nM | 1330 nM |
| CNCCCS(=O)(=O)c1cccc(Oc2ccc(F)c(-c3ncnc4c(Cl)cccc34)c2)c1 [Example 44, 3-({3-[3-(8-chloroquinazolin-4-yl)-4-fluorophenoxy]phenyl}sulfonyl)-N-methylpropan-1-amine] | 965 nM | 7310 nM |
| CNCCCCS(=O)(=O)c1cccc(Oc2ccc(F)c(-c3ncnc4c(Cl)cccc34)c2)c1 [Example 43, 4-({3-[3-(8-chloroquinazolin-4-yl)-4-fluorophenoxy]phenyl}sulfonyl)-N-methylbutan-1-amine] | 3590 nM | – |
| CS(=O)(=O)c1cc(Oc2ccc(F)c(-c3ncnc4c(Cl)cccc34)c2)ccc1C(N)=O [Example 42, 4-[3-(8-chloroquinazolin-4-yl)-4-fluorophenoxy]-2-(methylsulfonyl)benzamide] | 4900 nM | 10900 nM |
